Target: Wee1-like protein kinase (Homo sapiens, UniProt P30291)
Test: Kinase Activity Assay: All reactions took place in 60 μL volumes in reaction buffer containing 40 mM Tris-HCl and 20 mM magnesium chloride, supplemented with 0.1 mg/mL bovine serum albumin and 2 mM DTT. Compounds were serially diluted in buffer and 5 μL of each concentration pipetted into a white 384 well plate (Sigma Aldrich M6186). A 5 μL aliquot of the Wee-1 enzyme was added to each well and the plate centrifuged for 1 min to ensure mixing of the enzyme and inhibitor. The plate was incubated at room temperature for 30 minutes before the addition of 2.0 μg/mL of substrate and 30 μM ATP in a 5 μL aliquot. The plate was centrifuged for one minute and incubated for 1 h at RT. 15 μL of ADP-Glo stop reagent was added to each well to quench the reaction and deplete unconverted ATP. The plate was incubated for a further 40 min in the dark at RT. 30 μL of ADP-Glo kinase detection reagent was added to each well, converting ADP to ATP, […]. The plate was shaken for 1 min, and incubated in the dark for an additional hour.

Sequence of Wee1-like protein kinase (P30291 whole entry): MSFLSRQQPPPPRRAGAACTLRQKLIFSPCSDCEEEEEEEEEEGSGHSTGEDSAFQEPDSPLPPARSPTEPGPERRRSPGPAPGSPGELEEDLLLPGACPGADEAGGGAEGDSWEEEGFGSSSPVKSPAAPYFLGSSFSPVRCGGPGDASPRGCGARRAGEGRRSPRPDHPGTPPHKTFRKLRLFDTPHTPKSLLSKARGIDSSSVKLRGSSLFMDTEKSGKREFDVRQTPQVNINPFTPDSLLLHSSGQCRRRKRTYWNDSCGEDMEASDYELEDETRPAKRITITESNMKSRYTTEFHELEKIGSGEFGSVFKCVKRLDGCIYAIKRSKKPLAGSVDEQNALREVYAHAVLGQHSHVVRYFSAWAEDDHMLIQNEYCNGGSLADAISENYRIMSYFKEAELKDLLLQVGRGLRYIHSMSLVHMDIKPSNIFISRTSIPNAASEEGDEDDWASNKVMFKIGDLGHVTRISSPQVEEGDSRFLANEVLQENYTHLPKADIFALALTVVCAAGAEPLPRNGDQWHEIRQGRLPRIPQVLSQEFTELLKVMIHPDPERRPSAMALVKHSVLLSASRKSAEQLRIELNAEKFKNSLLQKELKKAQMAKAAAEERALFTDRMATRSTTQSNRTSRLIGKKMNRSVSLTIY

With `C=CCn1c(=O)c2cnc(Nc3ccc(N4CCOCC4)nc3)nc2n1-c1cccc(N=S(C)(C)=O)n1` the IC50 was 0.8 nM.

From ChEMBL document CHEMBL5727960, “Wee-1 inhibiting pyrazolopyrimidinone compounds” (2020)
